Like-named read-outs stand apart in the source and are kept apart here. Blank lines part the entries; values can stand above or below the compound they belong to.
Legend:
Panc-1 cells = assay: CyQuant cell proliferation/viability assay, Panc-1; format: cell-based; settings: Homo sapiens
From the text: (§1) Cell Proliferation Viability Assay and Annexin V Binding and Flow Cytometry.
(§2) Viable cells were counted by trypan blue exclusion/phase contrast microscopy or assessed by CyQuant cell viability assay, according to manufacturer's (Invitrogen) instructions, or cells were processed for Annexin V binding (BD Biosciences) with flow cytometry for apoptosis.

Colo-357 cells = assay: CyQuant cell proliferation/viability assay, Colo-357; format: cell-based; settings: Homo sapiens
From the text: as §1, §2

[1] = system: Panc-1 and Colo-357 cells; assay: CyQuant cell proliferation/viability assay, statements for both lines
From the text: as §1, §2

Panc-1 or Colo-357 cells = assay: Viable cell count by trypan blue exclusion/phase-contrast microscopy; format: cell-based, human
From the text: as §1, §2

[2] = system: Panc-1 and Colo-357 cells; assay: Colony survival assay; format: cell-based, human; settings: 500 cells per dish, treated once for 48 h
Description: Single-cell suspension of Panc-1 and Colo-357 cells were seeded in 6-cm dishes (500 cells per well) and assayed as previously reported (19), treated the next day with inhibitors for 48 h, and allowed to grow until large colonies were visible. Colonies were stained with crystal violet for 4 h and counted under phase-contrast microscope.

pErk1/pErk2MAPK and pAkt = assay: Immunoblotting for pErk1/pErk2MAPK and pAkt (control studies); format: cell-based, human; settings: Panc-1 and Colo-357 cells (data not shown)
Description: (§3) SDS-PAGE/Western Blot Analysis.
(§4) Western blotting analysis was performed as previously described (15, 18). Primary antibodies used were anti-Stat3 (C20) (Santa Cruz, Santa Cruz, Calif.), anti-pY845EGFR (Upstate Biotech, Millipore, Billerica, Mass.), and antibodies against pY705Stat3, Stat3, pY1068EGFR, pY1086EGFR, pY1173EGFR, EGFR, pY416Src, Src, c-Myc, and β-Actin from Cell Signaling (Danvers, Mass.). Inhibitors

Stat3 [3] = assay: Stat3 DNA-binding activity, EMSA of nuclear extracts, Panc-1; format: cell-based, human; settings: for constitutive Stat3 DNA-binding activity: Panc-1, 24 h treatment; for constitutively-active Stat3 DNA-binding activity: first 30 min to 1 h of treatment
Description: (§5) Nuclear Extract Preparation and Gel Shift Assays.
(§6) Nuclear extract preparation and DNA-binding with electrophoretic mobility shift assay (EMSA) were carried out, as previously reported (14, 15). The ^32P-labeled oligonucleotide probes used were hSIE (high affinity sis-inducible element from the c-fos gene, m67 variant), 5′-[…]; (SEQ ID NO:1) that binds Stat1 and Stat3 (Wagner et al., 1990) and the MGFe (mammary gland factor element from the bovine β-casein gene promoter, 5′-[…]; (SEQ ID NO:2) that binds Stat1 and Stat5 (Gouilleux et al., 1995; Seidel et al., 1995).

Stat3 [4] = assay: Stat3 DNA-binding activity, EMSA of nuclear extracts, Colo-357; format: cell-based, human
Description: as §5, §6

Src = molecular target: T1, Src (Homo sapiens, UniProt P12931); assay: Immunoblotting of whole-cell lysates for pY416Src; format: cell-based; settings: immunoblot, 1 h and 24 h treatment or siRNA knockdown
T1 construct: endogenous in cells; host or cells: Panc-1 and Colo-357 human pancreatic cancer cells
Description: as §3, §4
Small-Interfering RNA (siRNA) Transfection.
siRNA sequences for EGFR and Src were ordered from Dharmacon RNAi Technologies, Thermo Scientific (Lafayette, Colo.).

[5] = PANC-1, inhibitor alone, 48-h treatment, read-out: IC50 against Panc-1 viability
[6] = COLO357, inhibitor alone, 48-h treatment, read-out: IC50 against Colo-357 viability
[7] = 1 μM ZD, 100 nM Das, or 50 μM S3I-201 alone, 24 h
[8] = 48-h treatment with each inhibitor alone

T1 sequence (P12931 whole entry): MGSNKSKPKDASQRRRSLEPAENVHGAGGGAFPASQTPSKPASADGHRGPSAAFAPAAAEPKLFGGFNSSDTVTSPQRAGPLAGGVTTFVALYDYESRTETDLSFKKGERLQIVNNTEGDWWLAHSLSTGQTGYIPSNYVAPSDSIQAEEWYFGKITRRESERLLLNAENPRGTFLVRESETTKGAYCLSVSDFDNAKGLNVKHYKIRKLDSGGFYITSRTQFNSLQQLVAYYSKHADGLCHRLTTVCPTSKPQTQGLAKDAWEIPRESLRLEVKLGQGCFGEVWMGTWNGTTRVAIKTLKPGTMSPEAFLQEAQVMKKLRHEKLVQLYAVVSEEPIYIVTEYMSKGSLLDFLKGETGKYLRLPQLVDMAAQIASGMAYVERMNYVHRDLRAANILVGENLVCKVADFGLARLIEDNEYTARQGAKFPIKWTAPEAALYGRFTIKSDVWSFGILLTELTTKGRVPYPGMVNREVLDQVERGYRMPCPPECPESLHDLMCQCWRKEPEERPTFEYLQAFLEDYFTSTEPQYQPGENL

- constitutive Stat3 DNA-binding activity (Stat3 [3]): abolished
Compound: N#C/C(=C\c1ccc(O)c(O)c1)C(=O)NCc1ccccc1 [AG490, Tyrphostin AG490]
- constitutively-active Stat3 DNA-binding activity (Stat3 [3]): no effect

- constitutive Stat3 DNA-binding activity (Stat3 [3]): rebounded
- constitutively-active Stat3 DNA-binding activity (Stat3 [3]): early repression
- pY416Src level (Src activity) (Src): no detectable changes
Compound: C=CC(=O)Nc1cc2c(Nc3cccc(Br)c3)ncnc2cc1OCCCN1CCOCC1 [PD169]

- constitutive Stat3 DNA-binding activity (Stat3 [3]): moderately inhibited
- constitutively-active Stat3 DNA-binding activity (Stat3 [3]): early repression
Compound: CC(C)(C)c1cc(/C=C(\C#N)C(N)=S)cc(C(C)(C)C)c1O [AG879]

More lines, now with the values behind:

Compound: Cc1ccc(S(=O)(=O)OCC(=O)Nc2ccc(C(=O)O)c(O)c2)cc1 [S3I-201]
- IC50 (Panc-1 cells; PANC-1, 48 h, read-out: IC50 of S3I-201 on Panc-1 cells): 15 µM
- IC50 (Panc-1 cells; [5]): 40 µM
- IC50 (Colo-357 cells; COLO357, 48 h, read-out: IC50 of S3I-201 on Colo-357 cells): 20 µM
- IC50 (Colo-357 cells; [6]): 45 µM
- viable cell numbers (fluorescent unit, FU) [1]: decreased viable cell numbers
- sensitivity of Panc-1 and Colo-357 cells to ZD and Das ([1]; co-treatment with S3I-201, 48 h): increased the sensitivity
- cell viability (viable cell count) (Panc-1 or Colo-357 cells; [7]): minimally affected
- cell viability (viable cell count) (Panc-1 or Colo-357 cells; treatment for 48 to 96 h): progressively decreased
- colony numbers [2]: reduced colony numbers

Compound: Cc1nc(Nc2ncc(C(=O)Nc3c(C)cccc3Cl)s2)cc(N2CCN(CCO)CC2)n1 [Das, Dasatinib]
- IC50 (Panc-1 cells; PANC-1, read-out: IC50 of Das against Panc-1 viability, concurrent treatment with S3I-201, 48-h treatment): 0.006 µM
- IC50 (Panc-1 cells; [5]): 0.1 µM
- IC50 (Colo-357 cells; COLO357, read-out: IC50 of Das against Colo-357 viability, concurrent treatment with S3I-201, 48-h treatment): 0.008 µM
- IC50 (Colo-357 cells; [6]): 0.09 µM
- viable cell numbers (fluorescent unit, FU) [1, 8]: decreased viable cell numbers
- sensitivity of both cell lines to S3I-201 ([1]; co-treatment with Das or ZD, 48 h): increased the sensitivity
- cell viability (viable cell count) (Panc-1 or Colo-357 cells; [7]): minimally affected
- cell viability (viable cell count) (Panc-1 or Colo-357 cells; treatment for 48 to 96 h): progressively decreased
- pErk1/pErk2MAPK and pAkt levels (pErk1/pErk2MAPK and pAkt): neither of which was significantly affected
- constitutive Stat3 DNA-binding activity (Stat3 [3]): rebounded
- constitutively-active Stat3 DNA-binding activity (Stat3 [3]): early repression
- colony numbers [2]: reduced colony numbers
- Stat3 DNA-binding activity (Stat3 [4]): inhibited

Compound: COc1cc2ncnc(Nc3ccc(F)c(Cl)c3)c2cc1OCCCN1CCOCC1 [ZD, Gefitinib]
- cell viability ([1]; 1 μM ZD for 48 h): minimal effect
- viable cell numbers (fluorescent unit, FU) [1, 8]: decreased viable cell numbers
- cell viability (viable cell count) (Panc-1 or Colo-357 cells; [7]): minimally affected
- number of viable Panc-1 cells (Panc-1 or Colo-357 cells; ZD, 96 h (Day 4), Panc-1): decreased
- cell viability (viable cell count) (Panc-1 or Colo-357 cells; treatment for 48 to 96 h): minimal effect
- pErk1/pErk2MAPK and pAkt levels (pErk1/pErk2MAPK and pAkt): neither of which was significantly affected
- constitutive Stat3 DNA-binding activity (Stat3 [3]): rebounded
- constitutively-active Stat3 DNA-binding activity (Stat3 [3]): early repression
- colony numbers [2]: not EGFR inhibition (by ZD) resulted in reduced colony numbers
- Stat3 DNA-binding activity (Stat3 [4]): inhibited
